Results published in patent US11866460B2 (priority 2015, dated 2024).
Where no end group is shown, it is not given here.

Key:
S. aureus (ATCC 25923) = conditions: for MIC in PB: 10 mM potassium phosphate buffer, pH 7.2; for MIC in PBS: phosphate-buffered saline
CHIKV 181/25 = conditions: for EC50: 0 h
in vitro = conditions: African green monkey
DENV-3 H87 = conditions: for Therapeutic Index (CC50/EC50): -3 H87; for EC50: -3 H87, 0 h
DENV-1 PRS41393 = conditions: for Therapeutic Index (CC50/EC50): -1 PRS41393; for EC50: -1 PRS41393, 0 h
DENV-2 New Guinea C = conditions: -2 New Guinea C; for EC50: 0 h
DENV-4 H241 = conditions: for Therapeutic Index (CC50/EC50): -4 H241; for EC50: -4 H241, 0 h
VEEV TC-83 = conditions: 0 h
Vero cells = conditions: African green monkey

| Sequence | MIC in PB (S. aureus (ATCC 25923)) [µM] | MIC in PBS (S. aureus (ATCC 25923)) [µM] | MHC (human erythrocyte cells) [µM] | Therapeutic Index (CC50/EC50) (CHIKV 181/25) | Therapeutic Index (CC50/EC50) (JEV 14-14-2) | CC50 (in vitro) [µM] | Therapeutic Index (CC50/EC50) (DENV-3 H87) | EC50 (DENV-3 H87) [µM] | Therapeutic Index (CC50/EC50) (YFV 17D) | Therapeutic Index (CC50/EC50) (DENV-1 PRS41393) | EC50 (DENV-1 PRS41393) [µM] | Therapeutic Index (CC50/EC50) (DENV-2 New Guinea C) | Therapeutic Index (CC50/EC50) (DENV-4 H241) | EC50 (DENV-4 H241) [µM] | EC50 (VEEV TC-83) [µM] | CC50 (Vero cells) [µM] | other results |
| --- | --- | --- | --- | --- | --- | --- | --- | --- | --- | --- | --- | --- | --- | --- | --- | --- | --- |
| AGSWLRDIWTWLQSAL [TSG008] | 1.5 | 1.5 | 1.5 | – | – | – | – | – | – | – | – | – | – | – | – | – | – |
| GSSWLRDILTALQSLL [TSG007] | 1.5 | 1.5 | 1.5 | – | – | – | – | – | – | – | – | – | – | – | – | – | – |
| GSSWLRDIWTALQSWL [TSG006] | 1.5 | 1.5 | 3 | 5.07 | 10.71 | 14.9 | 11.71 | 1.63 | 22.09 | 12.03 | 1.56 | 26.04 | 11.63 | 2.11 | – | – | – |
| GSSWLRDIWTKLQSWL [TSG005] | 1.5 | 1.5 | 13 | – | – | – | – | – | – | – | – | – | – | – | – | – | – |
| GSSWLRDVWTKLQSWL [TSG004] | 1.5 | 1.5 | 50 | 14.89 | 24.46 | 111 | 18.64 | – | 14.33 | 13.45 | 6.24 | 18.29 | 15.88 | 6.5 | > 50 | 114 | EC50 (CHIKV 181/25): 9.52 µM; EC50 (DENV-2 New Guinea C): 8.63 µM |
| GSSWLRDVWTWLQSAL [TSG003] | 1.5 | 1.5 | 50 | 17.72 | – | 24.5 | 22.33 | – | 18.05 | 11.46 | 6.12 | 22.33 | 20.23 | – | > 12.5 | 38.6 | EC50 (JEV 14-14-2; 0 h): 16.3 µM |
| GSSWLRDVWTWLQSKL [TSG002] | 1.5 | 1.5 | 50 | 4.73 | 6.72 | – | 6.09 | 5.09 | 7.40 | 10.41 | – | 9.60 | 8.58 | – | > 12.5 | 16.1 | EC50 (CHIKV 181/25): 3.21 µM; EC50 (Marburg virus (MARV)): 0.922 µM; EC50 (Ebola virus (EBOV)): 1.01 µM; EC50 (DENV-2 New Guinea C): 2.74 µM |
| SGSWLRDVWTWLQSKL [TSG001 L-isomer] | – | – | – | – | – | – | – | – | – | – | – | – | – | – | – | > 20 | – |
| SWLRDIWDWICEVLSDFK [C5A, reference compound] | – | >100 | 13 | 9.38 | 61.68 | – | 15.02 | 3.86 | 99.97 | 44.60 | – | 85.26 | 22.13 | 1.65 | – | – | EC50 (in vitro): 29 µM |
